Measurements from patent US20030232994A1, “Bicyclic thiophene derivatives and combinatorial libraries thereof” (priority 2001, published 2003).

System: Streptococcus pyogenes (ATCC# 97-03 14289)
Assay: Anti-microbial screen (growth inhibition, OD 570 nm)
Assay type: cell-based
Conditions: growth in Todd Hewitt Broth, plates read at 570 nm at 0 time and 4 hours, color corrected
Procedure: Streptococcus pyogenes (ATCC# 97-03 14289) was grown in Todd Hewitt Broth (THB) (Difco Laboratories #0492-17-6) overnight until reaching an optical density of (OD=0.636 @ 570 nm) by reading 0.1 ml in a 96 well microtiter plate in a Molecular Devices Thermomax. This preparation was kept frozen as stocks in 30% v/v glycerol in 1.5 ml aliquots at −70^mC. until use. Prior to experiments, […] aliquots were thawed and diluted into 50 ml 2×THB. 60 ul of this dilution was added to 92 wells of microtiter plate. To three wells THB (200 ul) was added to serve as a blank and a sterility control. Test compounds in DMSO and appropriate concentrations of DMSO were added to Growth/Solvent Controls at 0 time. Plates were read at 0 time at 570 nm in the Molecular Devices plate reader to obtain compounds correction factors for insoluble or colored compounds. Plates were read again at 4 hours.
Percent inhibition is calculated with the following formulae: [drawing 4]
Color correct=O.D. 0 hr−Blank 0 hr)−(Solvent Control 0 hr−Blank 0 hr)
% Inhibition=100−O.D. test compound 4 hr−Blank 4 hr−color correct O.D. growth/solvent control 4 hr−Blank 4 hr

Row | Compound | % Inhibition [%]
1 | CCCc1ccc(C(=O)Nc2sc3c(c2C(=O)O)CCN(C(=O)c2cccc(F)c2C)C3)cc1 | 99.63
2 | Cc1noc(C)c1C(=O)N1CCc2c(sc(NC(=O)c3ccccc3)c2C(=O)O)C1 | 96.39
3 | O=C(Nc1sc2c(c1C(=O)O)CCN(C(=O)c1ccco1)C2)c1ccccc1 | 96.39
4 | CCOc1ncccc1C(=O)N1CCc2c(sc(NC(=O)c3ccccc3)c2C(=O)O)C1 | 95.92
5 | CCCc1ccc(C(=O)Nc2sc3c(c2C(=O)O)CCN(C(=O)C2CCC2)C3)cc1 | 95.65
6 | CSc1ccccc1C(=O)N1CCc2c(sc(NC(=O)CC(C)CC(C)(C)C)c2C(=O)O)C1 (centres unmarked) | 95.62
7 | C/C=C/C(=O)N1CCc2c(sc(NC(=O)c3ccccc3)c2C(=O)O)C1 | 94.99
8 | O=C(Nc1sc2c(c1C(=O)O)CCN(C(=O)c1cccc(Cl)c1)C2)c1ccccc1 | 94.99
9 | CC(C)CC(=O)N1CCc2c(sc(NC(=O)c3ccc(Cl)cc3)c2C(=O)O)C1 | 84.68
10 | O=C(Nc1sc2c(c1C(=O)O)CCN(C(=O)c1cccc3ccccc13)C2)c1ccccc1 | 83.81
11 | CCCSc1ncccc1C(=O)N1CCc2c(sc(NC(=O)c3ccc(C(C)(C)C)cc3)c2C(=O)O)C1 | 83.49
12 | Cc1ccc(C(=O)N2CCc3c(sc(NC(=O)c4ccc(C(C)(C)C)cc4)c3C(=O)O)C2)c(C)c1 | 82.83
13 | O=C(Nc1sc2c(c1C(=O)O)CCN(C(=O)CCc1ccc(F)c(F)c1)C2)c1ccc(Cl)cc1 | 82.59
14 | O=C(Nc1sc2c(c1C(=O)O)CCN(C(=O)c1ccc(F)c(F)c1)C2)c1ccc(Cl)cc1 | 82.59
15 | O=C(Nc1sc2c(c1C(=O)O)CCN(C(=O)CC1CCCC1)C2)c1ccc(Cl)cc1 | 82.59
16 | O=C(CCC1CCCC1)Nc1sc2c(c1C(=O)O)CCN(C(=O)c1cccc3ccccc13)C2 | 82.49
17 | Cc1ccc(C(=O)N2CCc3c(sc(NC(=O)c4ccccc4)c3C(=O)O)C2)cn1 | 82.41
18 | COc1cccc(C(=O)Nc2sc3c(c2C(=O)O)CCN(C(=O)c2cccc4ccccc24)C3)c1 | 82.32
19 | CCC(C(=O)Nc1sc2c(c1C(=O)O)CCN(C(=O)/C=C/c1ccc(Cl)cc1)C2)c1ccccc1 (centres unmarked) | 82.18
20 | CC(C)(C)c1ccc(C(=O)Nc2sc3c(c2C(=O)O)CCN(C(=O)c2ccsc2)C3)cc1 | 82.18
21 | Cc1ccc(C(=O)N2CCc3c(sc(NC(=O)CC(C)CC(C)(C)C)c3C(=O)O)C2)c(C)c1 (centres unmarked) | 81.9
22 | CC(CC(=O)Nc1sc2c(c1C(=O)O)CCN(C(=O)CC1CCCC1)C2)CC(C)(C)C (centres unmarked) | 81.9
23 | COc1cc(Cl)ccc1C(=O)N1CCc2c(sc(NC(=O)c3ccccc3)c2C(=O)O)C1 | 81.48
24 | CC(C)(C)c1ccc(C(=O)Nc2sc3c(c2C(=O)O)CCN(C(=O)c2ccccc2C(F)(F)F)C3)cc1 | 80.87
25 | CCC(C(=O)Nc1sc2c(c1C(=O)O)CCN(C(=O)Cc1cc(C)ccc1C)C2)c1ccccc1 (centres unmarked) | 80.75
26 | CCc1ccc(C(=O)Nc2sc3c(c2C(=O)O)CCN(C(=O)c2cc(OC)ccc2OC)C3)cc1 | 80.21

Row | Compound | % Inhibition [%]
27 | Cc1ccccc1C(=O)N1CCc2c(sc(NC(=O)c3ccccc3)c2C(=O)O)C1 | 80.08
28 | CCOc1ncccc1C(=O)N1CCc2c(sc(NC(=O)c3ccc(Cl)cc3)c2C(=O)O)C1 | 79.31
29 | CC(C)(C)c1ccc(C(=O)Nc2sc3c(c2C(=O)O)CCN(C(=O)CC2CCCC2)C3)cc1 | 79.23
30 | CSc1ccccc1C(=O)N1CCc2c(sc(NC(=O)c3ccccc3)c2C(=O)O)C1 | 79.15
31 | CCCSc1ncccc1C(=O)N1CCc2c(sc(NC(=O)c3ccc(CCC)cc3)c2C(=O)O)C1 | 79.09
32 | Cc1ccccc1C(=O)N1CCc2c(sc(NC(=O)c3ccc4ccccc4c3)c2C(=O)O)C1 | 78.88
33 | Cc1c(F)cccc1C(=O)N1CCc2c(sc(NC(=O)c3ccc(Cl)cc3)c2C(=O)O)C1 | 78.42
34 | O=C(Nc1sc2c(c1C(=O)O)CCN(C(=O)c1ccco1)C2)c1ccccc1Cl | 78.12
35 | CC(C)CC(=O)N1CCc2c(sc(NC(=O)c3ccc4ccccc4c3)c2C(=O)O)C1 | 77.94
36 | CCc1ccc(C(=O)Nc2sc3c(c2C(=O)O)CCN(C(=O)c2ccccc2Cl)C3)cc1 | 77.92
37 | COc1ccc(OC)c(C(=O)N2CCc3c(sc(NC(=O)c4ccc(C(C)(C)C)cc4)c3C(=O)O)C2)c1 | 77.92
38 | COc1cccc(C(=O)N2CCc3c(sc(NC(=O)c4ccc(Cl)cc4)c3C(=O)O)C2)c1OC | 77.82
39 | O=C(Nc1sc2c(c1C(=O)O)CCN(C(=O)/C=C/c1ccccc1Cl)C2)c1c(F)cccc1F | 77.66
40 | Cc1c(F)cccc1C(=O)N1CCc2c(sc(NC(=O)CC(C)CC(C)(C)C)c2C(=O)O)C1 (centres unmarked) | 77.56
41 | CC(C)C(=O)N1CCc2c(sc(NC(=O)c3ccc(C(C)(C)C)cc3)c2C(=O)O)C1 | 77.26
42 | O=C(Nc1sc2c(c1C(=O)O)CCN(C(=O)c1cccc(Cl)c1)C2)c1c(F)cccc1F | 77.03
43 | O=C(Nc1sc2c(c1C(=O)O)CCN(C(=O)c1ccc(Cl)cc1)C2)c1ccc2ccccc2c1 | 76.7
44 | CCCc1ccc(C(=O)Nc2sc3c(c2C(=O)O)CCN(C(=O)c2cccc(OC)c2OC)C3)cc1 | 76.44
45 | COc1cccc2cc(C(=O)N3CCc4c(sc(NC(=O)c5ccccc5)c4C(=O)O)C3)oc12 | 76.35
46 | CC(=O)Nc1ccc(C(=O)N2CCc3c(sc(NC(=O)c4ccccc4Cl)c3C(=O)O)C2)cc1 | 76.33
47 | Cc1ccccc1C(=O)N1CCc2c(sc(NC(=O)CCC3CCCC3)c2C(=O)O)C1 | 76.07
48 | CC(C)(C)c1ccc(C(=O)Nc2sc3c(c2C(=O)O)CCN(C(=O)c2ccc(F)c(F)c2)C3)cc1 | 75.95
49 | COc1cccc(C(=O)Nc2sc3c(c2C(=O)O)CCN(C(=O)c2ccc(F)c(F)c2)C3)c1 | 75.77
50 | CCc1ccc(C(=O)Nc2sc3c(c2C(=O)O)CCN(C(=O)c2ccc(Cl)cc2)C3)cc1 | 74.97
51 | O=C(Nc1sc2c(c1C(=O)O)CCN(C(=O)CCc1ccc(F)c(F)c1)C2)c1ccccc1 | 74.96
52 | CCCc1ccc(C(=O)Nc2sc3c(c2C(=O)O)CCN(C(=O)C(C)C)C3)cc1 | 74.78

Row | Compound | % Inhibition [%]
53 | Cc1ccc(C(=O)N2CCc3c(sc(NC(=O)c4ccc(C(C)(C)C)cc4)c3C(=O)O)C2)cn1 | 74.64
54 | COc1cccc(C(=O)Nc2sc3c(c2C(=O)O)CCN(C(=O)c2ccccc2C)C3)c1 | 74.32
55 | COc1cccc(C(=O)Nc2sc3c(c2C(=O)O)CCN(C(=O)c2ccccc2C(F)(F)F)C3)c1 | 73.59
56 | COc1cccc(C(=O)Nc2sc3c(c2C(=O)O)CCN(C(=O)c2cccc(F)c2C)C3)c1 | 73.59
57 | COc1ccc(OC)c(C(=O)N2CCc3c(sc(NC(=O)c4ccccc4)c3C(=O)O)C2)c1 | 73.56
58 | Cc1c(F)cccc1C(=O)N1CCc2c(sc(NC(=O)c3ccc4ccccc4c3)c2C(=O)O)C1 | 73.27
59 | CC(C)(C)c1ccc(C(=O)Nc2sc3c(c2C(=O)O)CCN(C(=O)c2cccc4ccccc24)C3)cc1 | 73
60 | CCC(C(=O)Nc1sc2c(c1C(=O)O)CCN(C(=O)c1ccc(Cl)cc1)C2)c1ccccc1 (centres unmarked) | 72.87
61 | O=C(CCC1CCCC1)Nc1sc2c(c1C(=O)O)CCN(C(=O)c1ccccc1C(F)(F)F)C2 | 72.86
62 | CC(=O)Nc1cccc(C(=O)N2CCc3c(sc(NC(=O)c4ccccc4Cl)c3C(=O)O)C2)c1 | 72.75
63 | O=C(Nc1sc2c(c1C(=O)O)CCN(C(=O)c1ccc(Cl)cc1)C2)c1ccccc1Cl | 72.75
64 | O=C(Nc1sc2c(c1C(=O)O)CCN(C(=O)c1ccc(C(F)(F)F)cc1)C2)c1ccccc1 | 72.63
65 | O=C(O)c1c(NC(=O)C2CCCCC2)sc2c1CCN(C(=O)c1cc3ccccc3s1)C2 | 72.52
66 | O=C(Nc1sc2c(c1C(=O)O)CCN(C(=O)C1CCCCC1)C2)c1ccc(Cl)cc1 | 72.46
67 | Cc1c(F)cccc1C(=O)N1CCc2c(sc(NC(=O)c3ccco3)c2C(=O)O)C1 | 72.33
68 | CSc1ccccc1C(=O)N1CCc2c(sc(NC(=O)c3ccc(Cl)cc3)c2C(=O)O)C1 | 71.86
69 | CC(=O)Nc1ccc(C(=O)N2CCc3c(sc(NC(=O)c4ccc(C(C)(C)C)cc4)c3C(=O)O)C2)cc1 | 71.69
70 | COc1ccc(OC)c(C(=O)N2CCc3c(sc(NC(=O)c4ccc(Cl)cc4)c3C(=O)O)C2)c1 | 70.67
71 | CC(C)(C)c1ccc(C(=O)Nc2sc3c(c2C(=O)O)CCN(C(=O)CCc2ccc(F)c(F)c2)C3)cc1 | 69.4
72 | Cc1ccccc1C(=O)N1CCc2c(sc(NC(=O)C3CCCCC3)c2C(=O)O)C1 | 69.29
73 | Cc1ccc(C(=O)N2CCc3c(sc(NC(=O)c4ccccc4Cl)c3C(=O)O)C2)cn1 | 69.18
74 | COc1cccc(C(=O)N2CCc3c(sc(NC(=O)[C@]45C[C@H]6C[C@@H](C[C@H](C6)C4)C5)c3C(=O)O)C2)c1OC | 68.91
75 | CC(CC(=O)Nc1sc2c(c1C(=O)O)CCN(C(=O)c1cccc3ccccc13)C2)CC(C)(C)C (centres unmarked) | 68.89
76 | Cc1ccsc1C(=O)N1CCc2c(sc(NC(=O)c3ccc(C(C)(C)C)cc3)c2C(=O)O)C1 | 68.74
77 | O=C(Nc1sc2c(c1C(=O)O)CCN(C(=O)/C=C/c1ccc(Cl)cc1)C2)c1ccccc1Cl | 68.58
